# Assay results: ChEMBL document CHEMBL1149313, “Synthesis of classical, three-carbon-bridged 5-substituted furo[2,3-d]pyrimidine and 6-substituted pyrrolo[2,3-d]pyrimidine analogues as antifolates” (J Med Chem, 2004)
# T1: Thymidylate synthase (Lactobacillus casei, UniProt P00469)
# T1 sequence (P00469 whole entry): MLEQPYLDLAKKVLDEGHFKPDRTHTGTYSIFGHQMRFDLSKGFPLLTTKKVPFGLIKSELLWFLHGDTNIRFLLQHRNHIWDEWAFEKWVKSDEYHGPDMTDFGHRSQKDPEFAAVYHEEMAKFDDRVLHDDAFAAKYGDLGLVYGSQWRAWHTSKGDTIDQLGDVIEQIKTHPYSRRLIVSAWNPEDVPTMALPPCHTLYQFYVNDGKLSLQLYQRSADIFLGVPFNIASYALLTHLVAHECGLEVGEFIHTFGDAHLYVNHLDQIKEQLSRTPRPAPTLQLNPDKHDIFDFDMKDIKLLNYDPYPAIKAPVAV
# T2: Folylpolyglutamate synthase, mitochondrial (Homo sapiens) (UniProt Q05932)
# T2 sequence (whole entry): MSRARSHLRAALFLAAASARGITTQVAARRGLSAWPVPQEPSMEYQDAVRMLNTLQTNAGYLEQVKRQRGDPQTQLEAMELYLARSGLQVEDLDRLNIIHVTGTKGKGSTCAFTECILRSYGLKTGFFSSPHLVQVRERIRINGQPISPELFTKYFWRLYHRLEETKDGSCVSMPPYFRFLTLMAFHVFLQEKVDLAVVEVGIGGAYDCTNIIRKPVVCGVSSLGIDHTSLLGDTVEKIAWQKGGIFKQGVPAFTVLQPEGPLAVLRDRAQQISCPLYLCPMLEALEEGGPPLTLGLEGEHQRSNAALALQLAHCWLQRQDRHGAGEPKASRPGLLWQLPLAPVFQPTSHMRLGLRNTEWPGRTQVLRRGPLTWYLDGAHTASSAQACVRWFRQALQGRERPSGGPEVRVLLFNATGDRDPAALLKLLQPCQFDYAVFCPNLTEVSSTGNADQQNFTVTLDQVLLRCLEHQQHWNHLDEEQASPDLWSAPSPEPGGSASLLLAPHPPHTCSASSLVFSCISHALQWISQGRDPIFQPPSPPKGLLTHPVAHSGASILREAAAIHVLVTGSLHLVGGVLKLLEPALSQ
# T3: Dihydrofolate reductase (Homo sapiens, UniProt P00374)
# T3 sequence (P00374 whole entry): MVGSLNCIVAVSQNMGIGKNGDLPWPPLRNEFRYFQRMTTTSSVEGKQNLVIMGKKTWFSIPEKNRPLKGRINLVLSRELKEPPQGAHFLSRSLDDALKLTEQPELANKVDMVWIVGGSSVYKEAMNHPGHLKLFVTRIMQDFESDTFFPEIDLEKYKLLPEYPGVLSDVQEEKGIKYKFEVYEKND
# T4: Dihydrofolate reductase (Escherichia coli, UniProt P0ABQ4)
# T4 sequence (P0ABQ4 whole entry): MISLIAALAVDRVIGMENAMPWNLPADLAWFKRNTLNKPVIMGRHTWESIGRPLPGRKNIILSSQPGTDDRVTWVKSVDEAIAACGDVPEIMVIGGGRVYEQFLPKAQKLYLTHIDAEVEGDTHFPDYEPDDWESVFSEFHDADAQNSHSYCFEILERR
# B1: Folylpolyglutamate synthase, mitochondrial (Homo sapiens), Q05932 (protein)
# chain: T2 sequence (whole entry)
# Assays:
# CCRF-CEM [1] = assay: Growth inhibition in human CCRF-CEM cells assessed as cell growth relative to control; assay type: functional; design: scale not given: the % may be the effect or the level left
# CCRF-CEM [2] = assay: Cell growth in human CCRF-CEM cells at 30 nM in presence of 5 uM thymidine and 10 uM deoxycytidine relative to control; assay type: functional
# CCRF-CEM [3] = assay: Cell growth in human CCRF-CEM cells at 30 nM in presence of 10 uM hypoxanthine and 10 uM deoxycytidine; assay type: functional
# CCRF-CEM [4] = assay: Cell growth in human CCRF-CEM cells at 30 nM in presence of thymidine, hypoxanthine and 10 uM deoxycytidine; assay type: functional
# CCRF-CEM [5] = assay: Cell growth in human CCRF-CEM cells in presence of 5 uM thymidine and 10 uM deoxycytidine relative to control; assay type: functional
# CCRF-CEM [6] = assay: Cell growth in human CCRF-CEM cells in presence of 10 uM hypoxanthine and 10 uM deoxycytidine relative to control; assay type: functional
# CCRF-CEM [7] = assay: Cell growth in human CCRF-CEM cells in presence of thymidine and hypoxanthine and 10 uM deoxycytidine relative to control; assay type: functional
# CCRF-CEM [8] = assay: Cell growth in human CCRF-CEM cells relative to control; assay type: functional
# [9] = Cytotoxicity against human CCRF-CEM cells; assay type: cell-based
# [10] = Cytotoxicity against human HL60 cells; assay type: cell-based; conditions: HL-60 cells
# [11] = Cytotoxicity against human K562 cells; assay type: cell-based
# [12] = Cytotoxicity against human SR cells; assay type: cell-based
# [13] = Cytotoxicity against human A549 cells; assay type: cell-based
# [14] = Cytotoxicity against human NCI-H460 cells; assay type: cell-based
# [15] = Cytotoxicity against human HOP92 cells; assay type: cell-based; conditions: HOP-92 cells
# [16] = Cytotoxicity against human HCT116 cells; assay type: cell-based; conditions: HCT-116 cells
# [17] = Cytotoxicity against human SW620 cells; assay type: cell-based; conditions: SW-620 cells
# SF-268 = assay: Cytotoxicity against SF268 cells; assay type: functional; conditions: Homo sapiens
# [18] = Cytotoxicity against human SK-MEL-28 cells; assay type: cell-based
# [19] = Cytotoxicity against human 786-0 cells; assay type: cell-based
# [20] = Cytotoxicity against human PC3 cells; assay type: cell-based; conditions: PC-3 cells
# [21] = Cytotoxicity against human MCF7 cells; assay type: cell-based
# [22] = Cytotoxicity against human MDA-MB-435 cells; assay type: cell-based
# [23] = Cytotoxicity against MDAN cells; assay type: cell-based, MDA-N; conditions: human
# Thymidylate synthase [24] = molecular target: Thymidylate synthase (Homo sapiens, UniProt P04818); assay: Inhibition of human recombinant thymidylate synthase
# Sequence of Thymidylate synthase (Homo sapiens, UniProt P04818) (P04818 whole entry): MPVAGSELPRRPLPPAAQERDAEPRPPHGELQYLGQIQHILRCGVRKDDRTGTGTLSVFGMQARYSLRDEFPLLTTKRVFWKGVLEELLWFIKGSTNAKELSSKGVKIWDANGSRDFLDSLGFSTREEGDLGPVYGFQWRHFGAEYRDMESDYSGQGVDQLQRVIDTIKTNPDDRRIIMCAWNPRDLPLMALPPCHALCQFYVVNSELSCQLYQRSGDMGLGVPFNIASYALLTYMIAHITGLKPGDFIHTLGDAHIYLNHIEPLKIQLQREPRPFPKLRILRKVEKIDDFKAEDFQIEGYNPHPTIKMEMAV
# Thymidylate synthase [25] = molecular target: Thymidylate synthase (Escherichia coli, UniProt C3SWJ7); assay: Inhibition of Escherichia coli thymidylate synthase
# Sequence of Thymidylate synthase (Escherichia coli, UniProt C3SWJ7) (C3SWJ7 whole entry): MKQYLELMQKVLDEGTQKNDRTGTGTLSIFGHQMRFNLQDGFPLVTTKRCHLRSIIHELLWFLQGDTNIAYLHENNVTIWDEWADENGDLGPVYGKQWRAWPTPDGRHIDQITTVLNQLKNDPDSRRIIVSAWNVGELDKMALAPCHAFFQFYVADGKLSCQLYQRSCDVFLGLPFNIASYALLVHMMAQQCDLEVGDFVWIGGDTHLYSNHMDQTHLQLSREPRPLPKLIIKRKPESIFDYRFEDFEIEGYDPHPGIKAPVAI
# Thymidylate synthase [26] = molecular target: T1, Thymidylate synthase; assay: Inhibition of Lactobacillus casei thymidylate synthase; design: species or system Lacticaseibacillus casei
# [27] = molecular target: T2, Folylpolyglutamate synthase, mitochondrial (Homo sapiens); assay: Ratio of Vmax to Km of human recombinant cytosolic FPGS
# CCRF-CEM [28] = assay: Growth inhibition of human CCRF-CEM cells at 1500 nM; assay type: functional
# Dihydrofolate reductase [29] = molecular target: T3, Dihydrofolate reductase
# Description: Inhibition of human recombinant DHFR
# Dihydrofolate reductase [30] = molecular target: T4, Dihydrofolate reductase
# Description: Inhibition of Escherichia coli DHFR
# Dihydrofolate reductase [31] = molecular target: Dihydrofolate reductase (Lactobacillus casei, UniProt P00381)
# Sequence of Dihydrofolate reductase (Lactobacillus casei, UniProt P00381) (P00381 whole entry): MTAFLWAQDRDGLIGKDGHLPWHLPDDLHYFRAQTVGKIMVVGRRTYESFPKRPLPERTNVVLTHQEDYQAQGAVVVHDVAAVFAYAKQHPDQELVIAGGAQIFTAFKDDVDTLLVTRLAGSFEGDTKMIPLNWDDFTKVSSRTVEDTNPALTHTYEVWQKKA
# Description: Inhibition of Lactobacillus casei DHFR
# [32] = substrate: Nc1nc(N)c2c(CCCc3ccc(C(=O)N[C@@H](CCC(=O)O)C(=O)O)cc3)coc2n1; assay: Activity of human recombinant cytosolic FPGS
# [33] = substrate: Nc1nc(N)c2c(CCCc3ccc(C(=O)N[C@@H](CCC(=O)O)C(=O)O)cc3)coc2n1; assay: (§1) Activity of human recombinant cytosolic FPGS relative to aminopterin
# [34] = substrate: Nc1nc(N)c2c(CCc3ccc(C(=O)N[C@@H](CCC(=O)O)C(=O)O)cc3)coc2n1; assay: as §1
molecule,measurement,setting,value
Nc1ccn([C@H]2C[C@H](O)[C@@H](CO)O2)c(=O)n1 [DOXECITINE],Activity,CCRF-CEM [1],97%
CN(Cc1cnc2nc(N)nc(N)c2n1)c1ccc(C(=O)N[C@@H](CCC(=O)O)C(=O)O)cc1 [METHOTREXATE],Activity,CCRF-CEM [2],16%
same,Activity,CCRF-CEM [3],15.5%
same,Activity,CCRF-CEM [4],74.5%
same,Activity,CCRF-CEM [5],12.5%
same,Activity,CCRF-CEM [6],13.5%
same,Activity,CCRF-CEM [7],73.5%
Nc1nc(N)c2c(CCCc3ccc(C(=O)N[C@@H](CCC(=O)O)C(=O)O)cc3)coc2n1,Activity,CCRF-CEM [8],21%
same,Activity,CCRF-CEM [5],25.5%
same,Activity,CCRF-CEM [6],20%
same,Activity,CCRF-CEM [7],73.5%
same,GI50,[9],0.0429 µM
same,GI50,[10],0.01 µM
same,GI50,[11],0.01 µM
same,GI50,[12],0.01 µM
same,GI50,[13],0.0166 µM
same,GI50,[14],0.01 µM
same,GI50,[15],95.9 µM
same,GI50,[16],0.01 µM
same,GI50,[17],0.01 µM
same,GI50,SF-268,0.648 µM
same,GI50,[18],100 µM
same,GI50,[19],0.123 µM
same,GI50,[20],0.0125 µM
same,GI50,[21],0.174 µM
same,GI50,[22],0.0214 µM
same,GI50,[23],0.0223 µM
same,IC50,Thymidylate synthase [24],> 18 µM
same,IC50,Thymidylate synthase [25],> 180 µM
same,IC50,Thymidylate synthase [26],> 100 µM
same,Ratio,[27],1.4
same,inhibition at 1.5 µM,CCRF-CEM [28],80%
same,IC50,Dihydrofolate reductase [29],9 µM
same,IC50,Dihydrofolate reductase [30],7 µM
same,IC50,Dihydrofolate reductase [31],11 µM
Nc1nc(N)c2c(CCc3ccc(C(=O)N[C@@H](CCC(=O)O)C(=O)O)cc3)coc2n1,Ratio,[27],0.07
Nc1nc2[nH]cc(CCc3ccc(C(=O)N[C@@H](CCC(=O)O)C(=O)O)cc3)c2c(=O)[nH]1 [PEMETREXED],IC50,Thymidylate synthase [24],19 µM
same,IC50,Thymidylate synthase [26],38 µM
Nc1nc(N)c2nc(CNc3ccc(C(=O)N[C@@H](CCC(=O)O)C(=O)O)cc3)cnc2n1,Ratio,[27],0.22
B1,Km,[32],0.3 µM
same,Vmax,[33],0.42
same,Vmax,[34],0.65
